Values of other authors in patent publication US20090215859A1, “Compositions and methods for modulating dhr96” (priority 2004, published 2009).

Assays:
[1] = target: T1, GAL4-USP fusion protein (Drosophila melanogaster, UniProt P20153+P34021); details: dependent on its EcR partner; cited from earlier work
T1 construct: host or cells: tissues dissected from transgenic Drosophila larvae
T1 sequence (P20153 239-498 limits assumed): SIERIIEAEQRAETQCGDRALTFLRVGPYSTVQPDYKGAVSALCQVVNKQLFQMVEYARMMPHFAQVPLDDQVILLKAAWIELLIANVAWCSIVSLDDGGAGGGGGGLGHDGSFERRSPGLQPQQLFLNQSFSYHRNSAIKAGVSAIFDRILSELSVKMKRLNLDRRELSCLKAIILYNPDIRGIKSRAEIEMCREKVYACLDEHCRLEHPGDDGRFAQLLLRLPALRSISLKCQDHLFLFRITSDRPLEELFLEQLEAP
T1 sequence (P34021 1-878): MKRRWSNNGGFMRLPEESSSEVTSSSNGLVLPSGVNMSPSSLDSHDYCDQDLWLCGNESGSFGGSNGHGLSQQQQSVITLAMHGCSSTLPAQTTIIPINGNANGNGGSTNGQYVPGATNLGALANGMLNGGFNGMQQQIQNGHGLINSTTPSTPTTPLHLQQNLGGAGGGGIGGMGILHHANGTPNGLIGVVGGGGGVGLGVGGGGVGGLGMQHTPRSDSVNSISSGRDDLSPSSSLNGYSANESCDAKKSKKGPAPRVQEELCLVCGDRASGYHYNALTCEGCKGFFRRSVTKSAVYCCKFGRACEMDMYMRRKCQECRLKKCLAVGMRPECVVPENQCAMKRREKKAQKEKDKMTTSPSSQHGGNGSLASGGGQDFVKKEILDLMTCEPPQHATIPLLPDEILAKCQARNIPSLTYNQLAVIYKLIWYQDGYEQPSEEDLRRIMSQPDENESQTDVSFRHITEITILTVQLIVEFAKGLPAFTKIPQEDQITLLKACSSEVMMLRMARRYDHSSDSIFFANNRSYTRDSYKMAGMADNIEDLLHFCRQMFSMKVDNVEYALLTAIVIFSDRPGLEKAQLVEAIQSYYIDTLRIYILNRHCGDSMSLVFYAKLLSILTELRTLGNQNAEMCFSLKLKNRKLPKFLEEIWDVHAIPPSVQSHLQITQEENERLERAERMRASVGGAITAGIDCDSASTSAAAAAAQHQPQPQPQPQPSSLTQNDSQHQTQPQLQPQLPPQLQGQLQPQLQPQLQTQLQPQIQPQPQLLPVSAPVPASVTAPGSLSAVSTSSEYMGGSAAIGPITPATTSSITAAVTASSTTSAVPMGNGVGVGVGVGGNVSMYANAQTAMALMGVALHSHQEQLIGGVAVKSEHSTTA

[2] = test system: DHR38; details: cultured larval organs; cited from earlier work
[3] = target: T2, PXR (Homo sapiens, UniProt O75469); details: cited from earlier work
T2 sequence (O75469 1-434): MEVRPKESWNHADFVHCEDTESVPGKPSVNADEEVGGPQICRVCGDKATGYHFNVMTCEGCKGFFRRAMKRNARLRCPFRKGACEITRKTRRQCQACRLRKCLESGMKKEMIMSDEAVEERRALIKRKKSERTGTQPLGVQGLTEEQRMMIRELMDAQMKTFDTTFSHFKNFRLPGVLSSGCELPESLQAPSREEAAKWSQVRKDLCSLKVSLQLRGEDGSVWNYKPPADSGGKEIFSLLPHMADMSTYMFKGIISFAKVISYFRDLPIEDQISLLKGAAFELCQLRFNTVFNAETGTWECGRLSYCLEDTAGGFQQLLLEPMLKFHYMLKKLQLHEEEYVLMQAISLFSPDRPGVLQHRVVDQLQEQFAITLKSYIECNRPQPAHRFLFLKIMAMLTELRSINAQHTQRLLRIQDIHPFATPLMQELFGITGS

Row | SMILES | Activation of the GAL4-USP fusion protein [1] | Activation of DHR38 in the GAL4-LBD system [2] | Action on PXR [3]
1 | CC(C)(O)CC[C@@H](O)[C@](C)(O)[C@H]1CC[C@@]2(O)C3=CC(=O)[C@@H]4C[C@@H](O)[C@@H](O)C[C@]4(C)[C@H]3CC[C@]12C [20-hydroxyecdysone] | potent activator | not | 
2 | COc1cc2c(cc1O)CCN[C@]21CS[C@@H]2c3c(OC(C)=O)c(C)c4c(c3[C@H](COC1=O)N1[C@@H]2[C@H]2c3c(cc(C)c(OC)c3O)C[C@@H]([C@@H]1O)N2C)OCO4 [ecteinascidin-743] |  |  | antagonist
